Measured values reported in BindingDB's records for patent US10428104 (Pfizer Inc., 2019).

Molecular target: Protein arginine N-methyltransferase 5 (Homo sapiens, UniProt O14744)
Test: PRMT5 assay
Protocol: Following dilution, 1 ul was added to an empty 96-well microtiter plate. PRMT5/MEP50 protein complex was combined with H4(1-21) peptide ([…]) in PRMT5 assay buffer (50 mM Tris pH 8.5, 50 mM NaCl, 5 mM MgCl2, 1 mM EDTA, 1 mM TCEP) and 44 ul was added to the microtiter plate containing compound. S-Adenosyl-L-methionine (SAM) was prepared by combining 3H labelled SAM with unlabelled SAM in PRMT5 assay buffer such that the final SAM concentration was 10 uM and the specific activity was 0.2 uCi/ul. The reaction was initiated by adding 5 ul of SAM stock to the microtiter plate. The final reaction conditions were 10 nM PRMT5/MEP50 complex, 200 nM peptide and 1 uM SAM. Following a 25 minute incubation at room temperature, the reaction was stopped with the addition of 100 uL of 20% TCA. The 3H-peptide product was captured using a 96-well filter plate (MSIPN4B, Millipore) and washed 5 times with PBS buffer. Scintillation fluid (100 ul) was added to the dried filter plate and counted in a liquid scintillation counter. IC50 values were determined by fitting the data to the standard 4-parameter dose response equation using Pfizer proprietary software.

Protein arginine N-methyltransferase 5, sequence (O14744 whole entry): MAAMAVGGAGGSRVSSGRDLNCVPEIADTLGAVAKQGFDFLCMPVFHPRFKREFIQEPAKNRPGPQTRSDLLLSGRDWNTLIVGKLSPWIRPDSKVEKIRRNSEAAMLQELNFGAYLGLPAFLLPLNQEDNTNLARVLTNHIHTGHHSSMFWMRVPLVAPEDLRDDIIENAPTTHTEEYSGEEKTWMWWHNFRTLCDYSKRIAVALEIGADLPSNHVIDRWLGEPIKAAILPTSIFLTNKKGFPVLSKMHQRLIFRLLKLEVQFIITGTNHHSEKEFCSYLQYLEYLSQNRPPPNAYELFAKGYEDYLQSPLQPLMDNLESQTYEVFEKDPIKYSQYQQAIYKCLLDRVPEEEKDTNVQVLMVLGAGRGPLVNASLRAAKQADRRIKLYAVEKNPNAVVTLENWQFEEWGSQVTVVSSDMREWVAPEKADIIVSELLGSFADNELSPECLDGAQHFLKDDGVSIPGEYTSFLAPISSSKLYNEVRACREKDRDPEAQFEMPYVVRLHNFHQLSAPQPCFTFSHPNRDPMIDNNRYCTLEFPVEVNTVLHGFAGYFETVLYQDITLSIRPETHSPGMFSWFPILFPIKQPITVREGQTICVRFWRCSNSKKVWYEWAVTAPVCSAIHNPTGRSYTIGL

SMILES	IC50
Cc1ncnc2c1ccn2[C@@H]1O[C@H]([C@H](O)c2cccc3cc[nH]c23)[C@@H](O)[C@H]1O [US10428104, Example 82]	150 nM
Cc1ncnc2c1ccn2[C@@H]1O[C@H]([C@H](O)c2cnn(C)c2)[C@@H](O)[C@H]1O [US10428104, Example 50]	50 nM
Cc1ncnc2c1ccn2[C@@H]1O[C@H]([C@@H](O)c2cnn(C)c2)[C@@H](O)[C@H]1O [US10428104, Example 51]	14700 nM
